The text below walks through data of PubChem BioAssay (NCI).

Common to all, as to test: inhibition of tumour cell growth, NCI panel, 48 h
Assay [1] deals with K-562 leukemia.
For assay [2], the system named is ACHN renal.
In assay [3] the test system is IGROV1 ovarian.
Assay [4] deals with NCI-H460 lung.
Assay [5] has as its system A549 NSCLC.
In assay [6] the test system is HS 578T breast.
The test system of assay [7] is SK-OV-3 ovarian.
Assay [8] deals with HCT-15 colon.
Assay [9] relates to SK-MEL-2 melanoma.
In assay [10] the test system is KM12 colon.

“And” between values parts separate entries of the source, which are not always exact repeats. Equal entries are not always repeated.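 48-hour exposure; five concentrations; linearly interpolated endpoints. The concentration for 50% growth inhibition is given as GI50. TGI denotes the concentration required for complete inhibition of growth.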

For the compound `CC12OC(c3ccccc3)=CC(c3ccc(Cl)cc3)=C1C(c1ccccc1)=CC2=O` (stereo not drawn), the GI50 in assay [1] is 28.9 µM; in assay [2], 55.4 µM; in assay [3], above 100 µM; in [4], 34.8 µM; in assay [5], 89.1 µM; in assay [6], above 100 µM. Also, the GI50 in assay [7] was above 100 µM; in assay [8] it was 26.3 µM; in assay [9] it was above 100 µM; in [10], 71.8 µM. The TGI in assay [1], in [2], in [3], in assay [4], in assay [5] and in assay [6] was above 100 µM throughout. The TGI in assay [7], in assay [8], in assay [9] and in assay [10] was above 100 µM in each case.
In the case of `CC[C@H](NC(=O)[C@H](C)NC)C(=O)N1C[C@@H](O)C[C@H]1Cc1c(-c2[nH]c3cc(F)ccc3c2C[C@@H]2C[C@H](O)CN2C(=O)[C@H](CC)NC(=O)[C@H](C)NC)[nH]c2cc(F)ccc12`, the GI50 in [1] is 47.3 µM; in assay [2], above 100 µM; in assay [4], above 100 µM; in assay [5] it was above 100 µM; in [6] it was above 23.7 µM; in assay [7], below 0.0104 µM. Moreover, the GI50 in assay [8] is above 100 µM; in assay [9], 6.01 µM; in [10], above 100 µM. In addition, the TGI in assay [1] was above 100 µM; in assay [2], above 100 µM; in assay [4] it was above 100 µM; in assay [5], above 100 µM; in [6], above 100 µM; in assay [7] it was 0.0189 µM. For the same compound, the TGI in [8], in [9] and in [10] was above 100 µM in each case.
For the compound `CCN(CC)c1cc2c3c(c1)CCCN3CCC2`, the TGI in [1], in assay [2], in assay [3], in [4], in assay [5] and in assay [6] was above 10 µM each time. Moreover, the TGI in assay [7], in assay [8], in [9] and in assay [10] was above 10 µM in each case.
As to `O=c1c(Oc2ccc(F)cc2F)cc2cnc(NC3CCOCC3)nc2n1C1CCS(=O)(=O)CC1`, the GI50 in assay [1], in assay [2], in assay [3], in [4], in assay [5] and in assay [6] was above 25 µM throughout. For the same compound, the GI50 in [7], in assay [8], in assay [9] and in assay [10] was above 25 µM each time. Further, the TGI in [1], in assay [2], in assay [3], in [4], in assay [5] and in assay [6] was above 25 µM in each case. Besides, the TGI in assay [7], in assay [8], in assay [9] and in assay [10] was above 25 µM throughout.
As for `C=CCC(N[C@H](CO)c1ccccc1)c1ccc2ccccc2n1` (stereo partly drawn), the GI50 in assay [1] was above 100 µM; in assay [2], above 100 µM; in assay [3] it was 45.9 µM; in assay [5], above 100 µM; in [6], 22.5 µM; in [7], above 100 µM. The GI50 in assay [8], in assay [9] and in assay [10] was above 100 µM in each case. Further, the TGI in assay [1], in assay [2], in assay [3], in assay [5], in assay [6] and in [7] was above 100 µM in each case. In addition, the TGI in [8], in assay [9] and in assay [10] was above 100 µM throughout.
`CC1(C)C2CCC3=C(CCC4(C)C5C[C@](C)(C(=O)O)CC[C@]5(C)CC[C@]34C)[C@@]2(C)CC[C@@H]1O` (stereo partly drawn): the TGI in assay [1] was 49 µM; in assay [2], 29.9 µM; in [3], 49.4 µM; in assay [4] it was 30 µM; in assay [5], 26.6 µM; in assay [6] it was 59.1 µM. Also, the TGI in [7] came out at 35.7 µM; in assay [8], 37.7 µM; in [10], 33.6 µM.
For the compound `Cc1c[nH]c2c(O)cc3c(c12)[C@H](CCl)CN3C(=O)c1cc2cc(NC(=O)Nc3ccc4[nH]c(C(=O)N5C[C@@H](CCl)c6c5cc(O)c5[nH]cc(C)c65)cc4c3)ccc2[nH]1`, the GI50 in assay [2] was 8.41e-05 µM; in assay [3], 0.0255 µM; in [5], 1.31 nM and 0.000888 µg/mL; in assay [6], 0.0252 µM; in [8], 47.9 µM and 0.000888 µg/mL. The TGI in assay [3] is 44 µM; in assay [5] it was 75.5 µM and 0.00228 µg/mL; in assay [7], 26.7 nM and > 100 µM and 8.88 µg/mL; in [8] it was > 100 µM and 0.00213 µg/mL; in [9], 89.3 µM and 8.9e-06 µg/mL and 0.00276 µg/mL; in assay [10], 15 nM and 28.1 µM and 3e-06 µg/mL.
In the case of `COc1ccc(N2C(=O)CC(Cl)C2=O)cc1` (stereo not drawn), the TGI was 17.5 µM in assay [1]; 31.7 µM in assay [2]; above 100 µM in assay [3]; above 100 µM in assay [4]; above 100 µM in [5]; above 100 µM in assay [6]. Moreover, the results for the TGI in assay [7], in assay [8] and in [9] were above 100 µM, 33.2 µM and above 100 µM, respectively.
In the case of `CCCCc1c2c(nc3c1CCC/C3=C\c1ccccc1)C(=O)CCC2`, the TGI in assay [1] was 85.2 µM; in assay [2], 95.2 µM; in assay [3], 42.5 µM; in assay [4], above 100 µM; in [5], 62 µM; in assay [7], 67.2 µM. For the same compound, the TGI in assay [8] was 51.9 µM; in assay [9], 33.9 µM; in [10], 51.8 µM.
`COC(=O)c1s/c(=N\C(=S)N(C)C)n(-c2ccccc2)c1C(=O)OC`: the TGI in [1], in [2], in [3], in [4], in [5] and in assay [7] was above 100 µM throughout. Also, the TGI in assay [8], in [9] and in assay [10] was above 100 µM throughout.
